Assay results reported in US9783546B2, “Compounds” (GlaxoSmithKline Intellectual Property Development Limited, priority 2014, dated 2017).

Tests used:
Lp-PLA2 in human plasma = target: T1, Lp-PLA2 in human plasma (Homo sapiens, UniProt Q13093); experiment: Lp-PLA2 Human Plasma assay, Thio-PAF assay; assay type: biochemical; conditions: pooled human plasma, 2-thio-PAF substrate; read-out: pIC50 value in the Lp-PLA2 human plasma assays (converted)
T1 construct: from tissue; host or cells: pooled human plasma
T1 sequence (Q13093 22-441): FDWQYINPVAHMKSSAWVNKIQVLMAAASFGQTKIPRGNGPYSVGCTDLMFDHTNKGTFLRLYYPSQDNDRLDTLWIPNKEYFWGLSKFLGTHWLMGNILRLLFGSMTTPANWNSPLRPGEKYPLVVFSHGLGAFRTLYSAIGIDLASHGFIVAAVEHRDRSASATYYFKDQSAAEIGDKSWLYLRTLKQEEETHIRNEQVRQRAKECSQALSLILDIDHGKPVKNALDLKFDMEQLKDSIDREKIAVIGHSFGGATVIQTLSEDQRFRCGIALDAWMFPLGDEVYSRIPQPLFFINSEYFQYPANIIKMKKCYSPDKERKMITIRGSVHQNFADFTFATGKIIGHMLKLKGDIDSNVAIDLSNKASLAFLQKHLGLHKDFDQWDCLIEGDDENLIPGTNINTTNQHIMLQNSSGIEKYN
Text: (3) Lipoprotein-associated phospholipase A2 (Lp-PLA2) Human Plasma assay-Thio-PAF assay
The human plasma assay utilizes a thioester analog of PAF (phosphatidylcholine), where hydrolysis yields to the formation of a phospholipid containing a free thiol group. The amount of thiol is quantitated continuously by reacting with CPM (7-diethylamino-3-(4′-maleimidylphenyl)-4-methylcoumarin), a maleimide which increases in fluoresence after Michael addition of thiols. This assay may detect the activity of Lp-PLA2 in human plasma, as determined by specific inhibition by Lp-PLA2 inhibitors.
The thio-PAF assay was run as a quenched 15 μL assay. Compounds source plate was prepared by making 1:3 (by volume) serial dilution of the compounds into pure DMSO on 384-well microplate. […] of compounds on compound source plate were transferred to 384 well Greiner 784076 (black) low-volume plates by ECHO liquid dispenser. 8 μL pooled human plasma, which was previously aliquoted and frozen, was added. Plates were centrifuged for 10 sec at 500 rpm. […] Plates were read at ex: 380/em: 485 using Envision microplate reader. […]

[1] = target: T2, recombinant human Lp-PLA2 (Homo sapiens, UniProt Q13093); experiment: Recombinant human Lp-PLA2 assay (rhLp-PLA2), PED6 assay; assay type: biochemical; conditions: PED6 substrate, 30 minutes preincubation; read-out: rhLp-PLA2 (pIC50) (converted)
T2 sequence (Q13093 22-441): T1 sequence (Q13093 22-441)
Text: (1) Recombinant human Lp-PLA2 assays (rhLp-PLA2)-PED6 assay
N-((6-(2,4-dinitrophenyl)amino)-hexanoyl)-2-(4,4-difluoro-5,7-dimethyl-4-bora-3a,4a-diaza-s-indacene-3-pentanoyl)-1-hexadecanoyl-sn-glycero-3-phosphoethanolamine, triethylammonium salt (PED6) is a commercially available fluorescently-labeled phospholipid, which is commercially available from Invitrogene and Molecular Probes. There is a quenching para-nitro phenyl (PNP) group in the sn3 position and a Bodipy fluorescein (FL) group in the sn2 position. Upon cleavage with Lp-PLA2, the Bodipy FL group is liberated and then may result in an increase in fluorescence. Inhibitors of Lp-PLA2 therefore prevent this cleavage and no fluorescent increase is observed.
The PED6 assay was run as an unquenched 10 μL assay. The source plate containing the compounds to be tested was prepared by making 1:3 (by volume) serial dilution of the compounds within DMSO on 384-well microplate. Then, 0.01 μL of the compounds on compound source plate were transferred into 384 well Greiner 784076 (black) plates using ECHO liquid dispenser. […] The plates were read for fluorescence intensity at ex: 480/em: 540 using ViewLux microplate imager for Envision spectrofluroimeters. pIC50 data, curve and QC analysis was conducted by using XL fit module in Excel. […]

[2] = system: proinflammatory (M1) and anti-inflammatory (M2) markers in macrophages; experiment: Ex vivo analysis of M1 and M2 markers in macrophages of EAE rats by realtime PCR; parameters: species or system rat; conditions: splenic macrophages at day 13 post MBP-immunization and CNS infiltrating macrophages
Protocol: Ex vivo analysis of proinflammatory (M1) and anti-inflammatory (M2) markers in control and compound treated EAE rats. Splenic macrophages were harvested at day 13 post MBP-immunization and assayed for expression of a variety of markers by realtime PCR. CNS infiltrating cells were harvested and macrophages were analyzed for expression of M1 and M2 markers by realtime PCR.

[3] = system: experimental autoimmune encephalomyelitis (EAE) rats; experiment: Rat experimental autoimmune encephalomyelitis (EAE) model, preventive treatment; assay type: in vivo; conditions: rats immunized with MBP
Protocol: A further study was carried out to study the impact of Lp-PLA2 inhibitors on modulating M1/M2 imbalance. In this study, rats were induced to develop experimental autoimmune encephalomyelitis (EAE) by immunization with myelin basic protein (MBP) antigen and treated with a known Lp-PLA2 inhibitor: 5-(9-Methoxy-4-oxo-6,7-dihydro-4H-pyrimido[6,1-a]isoquinolin-2-yl)oxy)-2-(3-(trifluoromethyl)phenoxy)benzonitrile (See PCT application no. PCT/CN2011/001597). In this preventive treatment model, the compound was administered at day 0 (day of immunization) and continued to administer until day 22. The study lasted for 25 days. Rats were subsequently monitored for symptoms of EAE. Rats were immunized with MBP to develop EAE and symptoms were monitored daily. Plasma Lp-PLA2 activity, OxLDL, and LysoPC concentration were determined at different time points through the course of EAE.

[4] = compound administered day 0 until day 22, plasma

| SMILES | IC50 (Lp-PLA2 in human plasma) [nM] | IC50 [1] [nM] | M1 markers expression [2] | M2 markers expression [2] | clinical disease (EAE) ([3]; compound administered day 0 until day 22) | Lp-PLA2 activity in rat EAE plasma [3, 4] | LysoPC levels in rat EAE plasma [3, 4] |
| --- | --- | --- | --- | --- | --- | --- | --- |
| O=c1nc(OCc2cc(F)c(Oc3ccnc(C(F)(F)F)c3)c(F)c2)cc2n1C[C@H]1CCCN21 [Example 1, (R)-3-((3,5-difluoro-4-((2-(trifluoromethyl)pyridin-4-yl)oxy)benzyl)oxy)-7,8,8a, 9-tetra hydropyrrolo[1′,2′;3,4]imidazo[1,2-c]pyrimidin-1(6H)-one] | 7.94 | 0.158 |  |  |  |  |  |
| COc1ccc2c(c1)CCn1c-2cc(Oc2ccc(Oc3cccc(C(F)(F)F)c3)c(C#N)c2)nc1=O [5-(9-Methoxy-4-oxo-6,7-dihydro-4H-pyrimido[6,1-a]isoquinolin-2-yl)oxy)-2-(3-(trifluoromethyl)phenoxy)benzonitrile] |  |  | decrease in M1 markers | increase in M2 markers | reduction in clinical disease | decreased Lp-PLA2 activity | decreased |
| O=c1nc(OCc2cc(F)c(Oc3ccnc(C(F)(F)F)c3)c(F)c2)cc2n1C[C@@H]1CCCN21 [Example 2, (S)-3-((3,5-difluoro-4-((2-(trifluoromethyl)pyridin-4-yl)oxy)benzyl)oxy)-7,8,8a, 9-tetra hydropyrrolo[1′,2′:3,4]imidazo[1,2-c]pyrimidin-1(6H)-one] | 20 | 0.316 |  |  |  |  |  |
